Results taken from ChEMBL document CHEMBL2040820, “Synthesis and selective cytotoxic activity of novel hybrid chalcones against prostate cancer cells” (Bioorg Med Chem Lett, 2012).

Legend:
PC-3 [1] = assay: Anticancer activity against human PC3 cells after 48 hrs by MTT assay; format: functional, cell-based; conditions: PC-3, 48 h
B16 [2] = assay: Growth inhibition of mouse B16 cells at 100 uM after 48 hrs by MTT assay; format: functional; conditions: B16, 48 h, read-out: GI
NCI-H460 [3] = assay: Anticancer activity against human NCI-H460 cells after 48 hrs by MTT assay; format: functional, cell-based; conditions: NCI-H460, 48 h
HT-29 [4] = assay: Anticancer activity against human HT-29 cells after 48 hrs by MTT assay; format: functional, cell-based; conditions: HT-29, 48 h
NCI-H460 [5] = assay: Growth inhibition of human NCI-H460 cells at 100 uM after 48 hrs by MTT assay; format: functional; conditions: NCI-H460, 48 h, read-out: GI
B16 [6] = assay: Anticancer activity against mouse B16 cells after 48 hrs by MTT assay; format: functional, cell-based; conditions: B16, 48 h
HT-29 [7] = assay: Growth inhibition of human HT-29 cells at 100 uM after 48 hrs by MTT assay; format: functional; conditions: HT-29, 48 h, read-out: GI
PC-3 [8] = assay: Growth inhibition of human PC3 cells at 100 uM after 48 hrs by MTT assay; format: functional; conditions: PC-3, 48 h, read-out: GI

Structure (SMILES) | IC50 (PC-3 [1]) [µM] | inhibition of growth at 100 µM (B16 [2]) [%] | IC50 (NCI-H460 [3]) [µM] | IC50 (HT-29 [4]) [µM] | inhibition of growth at 100 µM (NCI-H460 [5]) [%] | IC50 (B16 [6]) [µM] | inhibition of growth at 100 µM (HT-29 [7]) [%] | inhibition of growth at 100 µM (PC-3 [8]) [%]
Cc1ccc(-c2nn(-c3ccccc3)cc2/C=C/C(=O)c2ccc3c(c2OCc2ccccc2)CC(C)(C)O3)cc1 | 24.2 | < 10 | > 100 | > 100 |  |  |  | 
Cc1ccc(-c2nn(-c3ccccc3)cc2/C=C/C(=O)c2ccc(OCc3ccccc3)c3c2OC(C)(C)C3)cc1 | > 100 |  |  |  | < 10 | > 100 | < 10 | 
CC1(C)Cc2c(OCc3ccccc3)ccc(C(=O)/C=C/c3cn(-c4ccccc4)nc3-c3ccccc3)c2O1 |  |  |  |  | < 10 | > 100 | < 10 | < 10
CC1(C)Cc2c(OCc3ccccc3)ccc(C(=O)/C=C/c3ccc(F)cc3)c2O1 |  |  | 22.3 |  |  | > 100 | < 10 | < 10
COc1ccc(/C=C/C(=O)c2ccc(OCc3ccccc3)c3c2OC(C)(C)C3)cc1 | 13.5 | < 10 | > 100 |  |  |  | < 10 | 
CC1(C)Cc2c(O)ccc(C(=O)/C=C/c3cn(-c4ccccc4)nc3-c3ccc(Cl)cc3)c2O1 | 18 |  |  |  |  |  |  | 
CC1(C)Cc2c(ccc(C(=O)/C=C/c3cn(-c4ccccc4)nc3-c3cccc([N+](=O)[O-])c3)c2OCc2ccccc2)O1 | > 100 |  | > 100 | > 100 |  | > 50 |  | 
CC1(C)Cc2c(ccc(C(=O)/C=C/c3cn(-c4ccccc4)nc3-c3ccc(Cl)cc3)c2OCc2ccccc2)O1 | 26 | < 10 | > 100 | > 100 |  |  |  | 
CC1(C)Cc2c(ccc(C(=O)/C=C/c3ccc(Cl)cc3Cl)c2OCc2ccccc2)O1 |  |  | > 100 | > 100 |  | > 100 |  | < 10
CC1(C)Cc2c(ccc(C(=O)/C=C/c3cn(-c4ccccc4)nc3-c3ccc([N+](=O)[O-])cc3)c2OCc2ccccc2)O1 | 62.3 | < 10 |  |  | < 10 |  | < 10 | 
CC1(C)Cc2c(ccc(C(=O)/C=C/c3ccccc3)c2OCc2ccccc2)O1 | > 100 |  | > 100 | > 100 |  | > 100 |  | 
CC1(C)Cc2c(OCc3ccccc3)ccc(C(=O)/C=C/c3ccc(Br)cc3)c2O1 | > 100 | < 10 | > 100 | > 100 |  |  |  | 
COc1ccc(/C=C/C(=O)c2ccc(O)c3c2OC(C)(C)C3)cc1 | 48.4 |  |  |  |  |  |  | 
CC1(C)Cc2c(OCc3ccccc3)ccc(C(=O)/C=C/c3cn(-c4ccccc4)nc3-c3cccc([N+](=O)[O-])c3)c2O1 | 5.9 | < 10 | > 100 |  |  |  | < 10 | 
CC1(C)Cc2c(ccc(C(=O)/C=C/c3cn(-c4ccccc4)nc3-c3ccccc3)c2OCc2ccccc2)O1 | > 100 |  |  | > 100 | < 10 | > 100 |  | 
COc1ccc(-c2nn(-c3ccccc3)cc2/C=C/C(=O)c2ccc(OCc3ccccc3)c3c2OC(C)(C)C3)cc1 | 7.9 | < 10 |  | > 100 | < 10 |  |  | 
CC1(C)Cc2c(ccc(C(=O)/C=C/c3ccc(Br)cc3)c2OCc2ccccc2)O1 | > 50 | < 10 | > 100 |  |  |  | < 10 | 
COc1ccc(/C=C/C(=O)c2ccc3c(c2OCc2ccccc2)CC(C)(C)O3)cc1 | 48.9 |  | > 100 |  |  | > 100 | < 10 | 
COc1ccc(-c2nn(-c3ccccc3)cc2/C=C/C(=O)c2ccc(O)c3c2OC(C)(C)C3)cc1 | 20.8 |  |  |  |  |  |  | 
CC1(C)Cc2c(ccc(C(=O)/C=C/c3ccc(Cl)cc3)c2OCc2ccccc2)O1 | > 100 | < 10 | > 100 | > 100 |  |  |  | 
CC1(C)Cc2c(OCc3ccccc3)ccc(C(=O)/C=C/c3cn(-c4ccccc4)nc3-c3ccc(Cl)cc3)c2O1 | 8.4 | < 10 |  |  | < 10 |  | < 10 | 
CC1(C)Cc2c(ccc(C(=O)/C=C/c3ccc(F)cc3)c2OCc2ccccc2)O1 | 44.2 |  | 75.8 | 23 |  | > 100 |  | 
CC1(C)Cc2c(O)ccc(C(=O)/C=C/c3cn(-c4ccccc4)nc3-c3cccc([N+](=O)[O-])c3)c2O1 | 25.6 |  |  |  |  |  |  | 
CC1(C)Cc2c(OCc3ccccc3)ccc(C(=O)/C=C/c3ccccc3)c2O1 |  |  | > 100 |  |  | 30.3 | < 10 | < 10
CC1(C)Cc2c(OCc3ccccc3)ccc(C(=O)/C=C/c3cn(-c4ccccc4)nc3-c3ccc([N+](=O)[O-])cc3)c2O1 | > 100 |  | > 100 | > 100 |  | > 100 |  | 
CC1(C)Cc2c(OCc3ccccc3)ccc(C(=O)/C=C/c3ccc(Cl)cc3Cl)c2O1 | > 100 | < 10 |  |  | < 10 |  | < 10 | 
COc1ccc(-c2nn(-c3ccccc3)cc2/C=C/C(=O)c2ccc3c(c2OCc2ccccc2)CC(C)(C)O3)cc1 | 18.4 | < 10 | > 100 | > 100 |  |  |  | 
COc1cccc2c1C(=O)c1c(O)c3c(c(O)c1C2=O)C[C@@](O)(C(=O)CO)C[C@@H]3O[C@H]1C[C@H](N)[C@H](O)[C@H](C)O1 [DOXORUBICIN] | 5.9 |  | 5.6 | 19.3 |  | 0.03 |  | 
CC1(C)Cc2c(OCc3ccccc3)ccc(C(=O)/C=C/c3ccc(Cl)cc3)c2O1 | > 100 |  |  |  | < 10 | > 100 | < 10 | 
